Measurements published in the supplement of paper PMC10307832.

Columns and labels:
Assay in all cases: relative viability (nuclei count vs DMSO), 5 days (fraction); higher = more cells survive
Kobe2602 + Dasatinib = compound: C1=CC(=CC=C1NC(=S)NNC2=C(C=C(C=C2[N+](=O)[O-])C(F)(F)F)[N+](=O)[O-])F [Kobe2602] + Cc1nc(Nc2ncc(C(=O)Nc3c(C)cccc3Cl)s2)cc(N2CCN(CCO)CC2)n1 [Dasatinib] (partner 0.075 µM)
Summary of the method: (§1)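 Nuclei were stained with Hoechst during a one-step fixation (final 0.05% Triton X-100, 1% formaldehyde, 1 ug/ml Hoechst) carried out 5 days after dosing, then counted on 4× images. The cells, lung cancer lines in 1536-well plates, had been dosed by pin tool the day after seeding with one drug alone or a fixed anchor-drug dose plus five library-drug doses (not always all listed) in √10 steps. Relative viability is the nuclei count in treated wells divided by that in vehicle wells, and each value is the median of duplicate plates.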

Kobe2602 + Pemetrexed = compound: C1=CC(=CC=C1NC(=S)NNC2=C(C=C(C=C2[N+](=O)[O-])C(F)(F)F)[N+](=O)[O-])F [Kobe2602] + Nc1nc2[nH]cc(CCc3ccc(C(=O)N[C@@H](CCC(=O)O)C(=O)O)cc3)c2c(=O)[nH]1 [Pemetrexed] (partner 0.2 µM)
Summary of the method: as §1

[1] = compound: COc1cc2nccc(Oc3ccc(NC(=O)C4(C(=O)Nc5ccc(F)cc5)CC4)cc3)c2cc1OC [Cabozantinib] + C[C@]1(O)C[C@@H](c2nc(-c3ccc4ccc(-c5ccccc5)nc4c3)c3c(N)nccn32)C1 [Linsitinib] (partner 1 µM)
Summary of the method: as §1

Zosuquidar + Lapatinib = compound: O[C@@H](COc1cccc2ncccc12)CN1CCN([C@@H]2c3ccccc3[C@@H]3[C@H](c4ccccc42)C3(F)F)CC1 [Zosuquidar] + CS(=O)(=O)CCNCc1ccc(-c2ccc3ncnc(Nc4ccc(OCc5cccc(F)c5)c(Cl)c4)c3c2)o1 [Lapatinib] (partner 2 µM)
Summary of the method: as §1

Question: What does the source list for UMC-11?
Answer: relative viability (Kobe2602 + Dasatinib; first compound 0.2 µM): 0.49; relative viability (Kobe2602 + Dasatinib; first compound 0.6325 µM): 0.449; relative viability (Kobe2602 + Dasatinib; first compound 2 µM): 0.449; relative viability (Kobe2602 + Dasatinib; first compound 6.325 µM): 0.451; relative viability (Kobe2602 + Dasatinib; first compound 20 µM): 0.452; relative viability (Kobe2602 + Pemetrexed; first compound 0.2 µM): 0.805; relative viability (Kobe2602 + Pemetrexed; first compound 0.6325 µM): 0.83; relative viability (Kobe2602 + Pemetrexed; first compound 2 µM): 0.822; relative viability (Kobe2602 + Pemetrexed; first compound 6.325 µM): 0.788; relative viability (Kobe2602 + Pemetrexed; first compound 20 µM): 0.779; relative viability ([1]; first compound 0.02 µM): 1.12; relative viability ([1]; first compound 0.06325 µM): 1.04; relative viability ([1]; first compound 0.2 µM): 1.03; relative viability ([1]; first compound 0.6325 µM): 0.98; relative viability ([1]; first compound 2 µM): 1.05; relative viability (Zosuquidar + Lapatinib; first compound 0.01 µM): 0.895; relative viability (Zosuquidar + Lapatinib; first compound 0.03162 µM): 1.07; relative viability (Zosuquidar + Lapatinib; first compound 0.1 µM): 0.89; relative viability (Zosuquidar + Lapatinib; first compound 0.3162 µM): 1.14; relative viability (Zosuquidar + Lapatinib; first compound 1 µM): 0.96
